According to US20240158446A1, “CYCLIC COMPOUND HAVING SELECTIVE INHIBITORY ACTION ON KRAS OVER HRAS AND NRAS” (CHUGAI SEIYAKU KABUSHIKI KAISHA, priority 2021, published 2024):
Where a SMILES comes first, the peptide text is derived from it. Bridges are numbered along the chain shown (N, C = ends). [ ]: non-standard residue; d: D form. The star is where a group is joined. hPhe(3-Cl-4-CF3) = N[C@@H](CCc1ccc(C(F)(F)F)c(Cl)c1)C(=O)O; NPrPhe(4-CF3) = CCCN[C@@H](Cc1ccc(C(F)(F)F)cc1)C(=O)O; NMeGly(cPent) = CN[C@H](C(=O)O)C1CCCC1; Pro(4,4-F2) = O=C(O)[C@@H]1CC(F)(F)CN1; Hyp = O=C(O)[C@@H]1C[C@@H](O)CN1; NMeL = CN[C@@H](CC(C)C)C(=O)O; Morpholide = C1CN(*)CCO1; Ac5c = NC1(C(=O)O)CCCC1; Aze = O=C(O)[C@@H]1CCN1; Ac4c = NC1(C(=O)O)CCC1; Sar = CNCC(=O)O

Experiments:
[1] = biological target: GDP-bound KRAS wild-type protein (Homo sapiens, UniProt P01116); assay: Binding to KRAS by surface plasmon resonance (SPR), Single Cycle Kinetics; conditions: SPR Single Cycle Kinetics, GDP-bound KRAS wild-type protein, 1:1 binding model; read-out: KRAS KD
[2] = biological target: GDP-bound HRAS wild-type protein (Homo sapiens, UniProt P01112); assay: Binding to HRAS by surface plasmon resonance (SPR), Single Cycle Kinetics; conditions: SPR, GDP-bound HRAS wild-type protein vs GDP-bound KRAS wild-type protein
[3] = biological target: GDP-bound NRAS wild-type protein (Homo sapiens, UniProt P01111); assay: Binding to NRAS by surface plasmon resonance (SPR), Single Cycle Kinetics; conditions: SPR, GDP-bound NRAS wild-type protein vs GDP-bound KRAS wild-type protein
GDP-bound NRAS wild-type protein, sequence (P01111 whole entry): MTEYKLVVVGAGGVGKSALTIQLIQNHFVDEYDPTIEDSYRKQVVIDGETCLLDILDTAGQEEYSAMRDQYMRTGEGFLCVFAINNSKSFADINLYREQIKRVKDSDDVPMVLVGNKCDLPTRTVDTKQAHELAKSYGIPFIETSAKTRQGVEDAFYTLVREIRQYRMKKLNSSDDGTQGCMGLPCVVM

GDP-bound HRAS wild-type protein, sequence (P01112 whole entry): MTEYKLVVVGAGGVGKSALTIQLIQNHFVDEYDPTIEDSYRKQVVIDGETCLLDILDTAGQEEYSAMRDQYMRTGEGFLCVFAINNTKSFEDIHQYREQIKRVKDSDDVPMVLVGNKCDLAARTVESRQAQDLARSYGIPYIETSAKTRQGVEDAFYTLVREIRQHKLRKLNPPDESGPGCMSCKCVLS
GDP-bound KRAS wild-type protein, sequence (P01116 whole entry): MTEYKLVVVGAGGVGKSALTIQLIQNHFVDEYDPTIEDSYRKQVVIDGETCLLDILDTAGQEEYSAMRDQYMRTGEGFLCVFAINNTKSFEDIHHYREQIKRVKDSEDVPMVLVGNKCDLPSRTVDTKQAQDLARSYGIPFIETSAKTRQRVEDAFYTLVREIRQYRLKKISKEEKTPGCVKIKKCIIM

| Kd [1] [nM] | SMILES | HRAS/KRAS (ratio of KD value for HRAS to KD value for KRAS) [2] | NRAS/KRAS (ratio of KD value for NRAS to KD value for KRAS) [3] |
| --- | --- | --- | --- |
| 0.33 | CCCN1C(=O)CN(C)C(=O)CN(C)C(=O)[C@H]([C@@H](C)CC)NC(=O)[C@H](CC(C)C)N(C)C(=O)C[C@@H](C(=O)N(C)C)NC(=O)[C@H](C2CCCC2)N(C)C(=O)C2(CCCC2)NC(=O)[C@@H]2CCCN2C(=O)[C@H](CCc2ccc(C(F)(F)F)c(Cl)c2)NC(=O)CN(C)C(=O)[C@@H]1Cc1ccc(C(F)(F)F)cc1 [PP0355] ([NMeL]I[Sar][Sar][NPrPhe(4-CF3)][Sar][hPhe(3-Cl-4-CF3)]P[Ac5c][NMeGly(cPent)]D-NMe2; lactam N-11) | B (a compound having 3 or more and less than 10 is denoted as B) | B (a compound having 3 or more and less than 10 is denoted as B) |
| 0.49 | CCCN1C(=O)CN(C)C(=O)CN(C)C(=O)[C@H]([C@@H](C)CC)NC(=O)[C@H](CC(C)C)N(C)C(=O)C[C@@H](C(=O)N(C)C)NC(=O)[C@H](C2CCCC2)N(C)C(=O)C2(CCC2)NC(=O)[C@@H]2CCCN2C(=O)[C@H](CCc2ccc(C(F)(F)F)c(Cl)c2)NC(=O)CN(C)C(=O)[C@@H]1Cc1ccc(C(F)(F)F)cc1 [PP0356] ([NMeL]I[Sar][Sar][NPrPhe(4-CF3)][Sar][hPhe(3-Cl-4-CF3)]P[Ac4c][NMeGly(cPent)]D-NMe2; lactam N-11) | B (a compound having 3 or more and less than 10 is denoted as B) | B (a compound having 3 or more and less than 10 is denoted as B) |
| 0.4 | CCCN1C(=O)CN(C)C(=O)CN(C)C(=O)[C@H]([C@@H](C)CC)NC(=O)[C@H](CC(C)C)N(C)C(=O)C[C@@H](C(=O)N(C)C)NC(=O)[C@H](C2CCCC2)N(C)C(=O)C2(CCCC2)NC(=O)[C@@H]2CC(F)(F)CN2C(=O)[C@H](CCc2ccc(C(F)(F)F)c(Cl)c2)NC(=O)CN(C)C(=O)[C@@H]1Cc1ccc(C(F)(F)F)cc1 [PP0357] ([NMeL]I[Sar][Sar][NPrPhe(4-CF3)][Sar][hPhe(3-Cl-4-CF3)][Pro(4,4-F2)][Ac5c][NMeGly(cPent)]D-NMe2; lactam N-11) | B (a compound having 3 or more and less than 10 is denoted as B) | B (a compound having 3 or more and less than 10 is denoted as B) |
| 0.14 | CCCN1C(=O)CN(C)C(=O)CN(C)C(=O)[C@H]([C@@H](C)CC)NC(=O)[C@H](CC(C)C)N(C)C(=O)C[C@@H](C(=O)N(C)C)NC(=O)[C@H](C2CCCC2)N(C)C(=O)C2(CCCC2)NC(=O)[C@@H]2C[C@@H](OCC)CN2C(=O)[C@H](CCc2ccc(C(F)(F)F)c(Cl)c2)NC(=O)CN(C)C(=O)[C@@H]1Cc1ccc(C(F)(F)F)cc1 [PP0359] ([NMeL]I[Sar][Sar][NPrPhe(4-CF3)][Sar][hPhe(3-Cl-4-CF3)][Hyp](Et)[Ac5c][NMeGly(cPent)]D-NMe2; lactam N-11) | B (a compound having 3 or more and less than 10 is denoted as B) | B (a compound having 3 or more and less than 10 is denoted as B) |

Further lines, the molecule ahead of its results:

| SMILES | Kd [1] [nM] | HRAS/KRAS (ratio of KD value for HRAS to KD value for KRAS) [2] | NRAS/KRAS (ratio of KD value for NRAS to KD value for KRAS) [3] |
| --- | --- | --- | --- |
| CCCN1C(=O)[C@@H]2CCN2C(=O)CN(C)C(=O)[C@H]([C@@H](C)CC)NC(=O)[C@H](CC(C)C)N(C)C(=O)C[C@@H](C(=O)N2CCOCC2)NC(=O)[C@H](C2CCCC2)N(C)C(=O)C2(CCC2)NC(=O)[C@@H]2C[C@@H](OCC)CN2C(=O)[C@H](CCc2ccc(C(F)(F)F)c(Cl)c2)NC(=O)CN(C)C(=O)[C@@H]1Cc1ccc(C(F)(F)F)cc1 [PP0354] ([NMeL]I[Sar][Aze][NPrPhe(4-CF3)][Sar][hPhe(3-Cl-4-CF3)][Hyp](Et)[Ac4c][NMeGly(cPent)]D-Morpholide; lactam N-11) | 0.44 | B (a compound having 3 or more and less than 10 is denoted as B) | C (A compound having a KD ratio of 0.1 or more and less than 3 is denoted as C) |
| CCCN1C(=O)CN(C)C(=O)CN(C)C(=O)[C@H]([C@@H](C)CC)NC(=O)[C@H](CC(C)C)N(C)C(=O)C[C@@H](C(=O)N(C)C)NC(=O)[C@H](C2CCCC2)N(C)C(=O)C2(CCC2)NC(=O)[C@@H]2CC(F)(F)CN2C(=O)[C@H](CCc2ccc(C(F)(F)F)c(Cl)c2)NC(=O)CN(C)C(=O)[C@@H]1Cc1ccc(C(F)(F)F)cc1 [PP0358] ([NMeL]I[Sar][Sar][NPrPhe(4-CF3)][Sar][hPhe(3-Cl-4-CF3)][Pro(4,4-F2)][Ac4c][NMeGly(cPent)]D-NMe2; lactam N-11) | 0.33 | C (A compound having a KD ratio of 0.1 or more and less than 3 is denoted as C) | B (a compound having 3 or more and less than 10 is denoted as B) |
| CCCN1C(=O)CN(C)C(=O)CN(C)C(=O)[C@H]([C@@H](C)CC)NC(=O)[C@H](CC(C)C)N(C)C(=O)C[C@@H](C(=O)N(C)C)NC(=O)[C@H](C2CCCC2)N(C)C(=O)C2(CCC2)NC(=O)[C@@H]2C[C@@H](OCC)CN2C(=O)[C@H](CCc2ccc(C(F)(F)F)c(Cl)c2)NC(=O)CN(C)C(=O)[C@@H]1Cc1ccc(C(F)(F)F)cc1 [PP0360] ([NMeL]I[Sar][Sar][NPrPhe(4-CF3)][Sar][hPhe(3-Cl-4-CF3)][Hyp](Et)[Ac4c][NMeGly(cPent)]D-NMe2; lactam N-11) | 0.25 | C (A compound having a KD ratio of 0.1 or more and less than 3 is denoted as C) | B (a compound having 3 or more and less than 10 is denoted as B) |
| CCCN1C(=O)CN(C)C(=O)CNC(=O)[C@H]([C@@H](C)CC)NC(=O)[C@H](CC(C)C)N(C)C(=O)C[C@@H](C(=O)N(C)C)NC(=O)[C@H](C2CCCC2)N(C)C(=O)C2(CCCC2)NC(=O)[C@@H]2CCCN2C(=O)[C@H](CCc2ccc(C(F)(F)F)c(Cl)c2)NC(=O)CN(C)C(=O)[C@@H]1Cc1ccc(C(F)(F)F)cc1 [PP0361] ([NMeL]IG[Sar][NPrPhe(4-CF3)][Sar][hPhe(3-Cl-4-CF3)]P[Ac5c][NMeGly(cPent)]D-NMe2; lactam N-11) | 0.72 | C (A compound having a KD ratio of 0.1 or more and less than 3 is denoted as C) | B (a compound having 3 or more and less than 10 is denoted as B) |
| CCCN1C(=O)CN(C)C(=O)CNC(=O)[C@H]([C@@H](C)CC)NC(=O)[C@H](CC(C)C)N(C)C(=O)C[C@@H](C(=O)N(C)C)NC(=O)[C@H](C2CCCC2)N(C)C(=O)C2(CCC2)NC(=O)[C@@H]2CCCN2C(=O)[C@H](CCc2ccc(C(F)(F)F)c(Cl)c2)NC(=O)CN(C)C(=O)[C@@H]1Cc1ccc(C(F)(F)F)cc1 [PP0362] ([NMeL]IG[Sar][NPrPhe(4-CF3)][Sar][hPhe(3-Cl-4-CF3)]P[Ac4c][NMeGly(cPent)]D-NMe2; lactam N-11) | 1 | B (a compound having 3 or more and less than 10 is denoted as B) | B (a compound having 3 or more and less than 10 is denoted as B) |
